In publication PMC7643960 (PLoS ONE, 2020):

Assays:
[1] = tested on: human carbonic anhydrase isoenzyme I; parameters: method as in PMID 15664816; conditions: cited from earlier work
[2] = tested on: human carbonic anhydrase isoenzyme IX; parameters: method as in PMID 15664816; conditions: cited from earlier work
[3] = tested on: normal human umbilical vein endothelial cells, fibroblasts and keratinocytes; conditions: cited from earlier work
[4] = tested on: different malignancies in five dogs; conditions: cited from earlier work
EMM cells MelDuWi = conditions: read-out: 96-h IC50 value (sulforhodamine B assay); cited from earlier work
[5] = Franz-type diffusion cell (FDC) permeation with HPLC analysis; format: in vitro ADME, horse; conditions: any of the FDC experiments
Text: Two different pharmaceutical formulations were provided by Skinomics GmbH, Halle, Germany, for in vitro permeation studies.
Skin from six horses was used for each FDC experiment. The skin from the lateral thorax was dissected at the Institute of Pathology, University of Veterinary Medicine Hannover, Foundation, Hannover, Germany, after euthanasia of the horses at the Clinic for Horses, University of Veterinary Medicine Hannover, Foundation, for reasons unrelated to the present study. Therefore, a prospective approval of the experiments by an animal research ethics committee was not required. Skin samples were stored at -20°C until use (maximum five months). Further skin sample preparation and diffusion experiments were performed as reported. Skin samples were incubated with test formulation 1 for 24 h and with test formulation 2 for 30 min and 24 h, respectively.
The following slices were 20-μm thick. […] A higher permeation rate of the compound was expected for 24-h experiments and, therefore, the 20-μm slices were stored and analyzed separately up to a depth of 310 μm. The slices were then pooled at 5 × 20 μm until a depth of a maximal 910 μm was reached. The cryostat blade was cleaned with tissues soaked in 80% methanol between each cut. The quantity of NVX-207 was determined by an analytic high-performance liquid chromatography (HPLC) method. […]

C=C(C)[C@@H]1CC[C@]2(COS(N)(=O)=O)CC[C@]3(C)[C@H](CC[C@@H]4[C@@]5(C)CC[C@H](OS(N)(=O)=O)C(C)(C)[C@@H]5CC[C@]43C)[C@@H]12 [BBS, (3β)-Lup-20(29)-ene-3,28-diol, 3,28-disulfamate]
inhibition of carbonic anhydrase I [1]: efficient inhibitor
inhibition of carbonic anhydrase IX [2]: efficient inhibitor

C=C(C)[C@@H]1CC[C@]2(C(=O)OCC(N)(CO)CO)CC[C@]3(C)[C@H](CC[C@@H]4[C@@]5(C)CC[C@H](OC(C)=O)C(C)(C)[C@@H]5CC[C@]43C)[C@@H]12 [NVX-207, 3-acetyl-betulinic acid-2-amino-3-hydroxy-2-hydroxymethyl-propanoate]
impact on in vitro survival of normal cells [3]: little impact
tolerability of intralesional treatment [4]: well tolerated
tumor response to intralesional treatment [4]: clinically beneficial tumor response was observed
IC50 (EMM cells MelDuWi): 5.6 µM
NVX-207 in the acceptor medium [5]: No NVX-207 was detected
